Key:
[1] = biological target: T1, Ppnk (Mycobacterium tuberculosis, UniProt P9WHV7); experiment: Effect of NADP and ADP on NADP-producing activity of purified Ppnk; assay type: biochemical, M. tuberculosis; settings: various levels of NADP or ADP
Experimental: The NADP-producing activity was assayed in the presence of various levels of NADP (solid circles) or ADP (open circles).
A reaction for producing NADP was performed in a reaction mixture solution (4.0 ml) at 37° C. with shaking. […] After the reaction for 1 hour, 10 μl of the reaction mixture was collected and enzymatically assayed for NADP using isocitrate dehydrogenase (Sigma-Aldrich Japan, Tokyo, Japan). The activity was expressed in μmol/g cells/hour.

[2] = biological target: T1, Ppnk

T1 sequence (P9WHV7 whole entry, looked up): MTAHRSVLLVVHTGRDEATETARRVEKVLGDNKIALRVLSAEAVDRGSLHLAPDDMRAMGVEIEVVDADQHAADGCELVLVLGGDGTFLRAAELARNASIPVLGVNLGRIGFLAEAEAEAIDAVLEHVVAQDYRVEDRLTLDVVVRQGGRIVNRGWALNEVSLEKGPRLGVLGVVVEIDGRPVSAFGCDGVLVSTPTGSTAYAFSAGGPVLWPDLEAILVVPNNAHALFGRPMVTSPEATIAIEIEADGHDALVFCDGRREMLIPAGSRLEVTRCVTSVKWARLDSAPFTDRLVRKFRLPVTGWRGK

Compound	inhibition of polyphosphate-dependent NAD kinase activity of Ppnk [1]	Mg2+ concentration giving highest activity [2]	effectiveness among metal ions (Mg2+, Mn2+, Ca2+) [2]
Nc1ncnc2c1ncn2[C@@H]1O[C@H](COP(=O)(O)OP(=O)(O)O)[C@@H](O)[C@H]1O [ADP]	not inhibited	–	–
[Cl-].[Cl-].[Mg+2] [MgCl2]	–	100 mM	most effective
